Source: US20130089591A1, “Compositions” (Givaudan SA, priority 2010, published 2013)

Assays:
[1] = Aggregation of polyamide capsules (Example 2 method); assay type: physicochemical; parameters: key to Encapsulation, No precursor (scale of aggregation) / Encapsulation, With precursor (scale of aggregation): ∘: no aggregation of the capsules; +: aggregation of few capsules together only visible under microscopy; ++: aggregates of mm size; +++: important aggregation; ++++: aggregation is such that a cake is obtained; settings: for Encapsulation, No precursor (scale of aggregation): free aldehyde as phase B at 5% in phase A of Table 1; for Encapsulation, With precursor (scale of aggregation): precursor of the aldehyde (Method 1.1) as phase B at 5% in phase A of Table 1
Procedure: An oil phase was prepared by dissolving isophtahaloyl dichloride (Fluka) in oil (oil composition specified in the examples below) at a level of 10%
An aqueous solution (Solution S1) was prepared by dissolving a polyvinyl alcohol Mowiol 4-88 (Kuru ray) in water at a level of 1%.
An aqueous solution (Solution S2) was prepared when triethylentetraamine (Hunstman) was diluted in water at a level of 3%.
100 g of the oil phase was mixed with 450 g of solution S1 to form an oil-in-water emulsion in a 1 L reactor equipped with a MIG stirrer operating at 1000 rpm. After 5 minutes of mixing, 450 g of solution S2 was slowly added. The resultant slurry of polyamide capsules was kept under stirring for 2 H.
Two capsule populations were formed. A first encapsulating IPM (isopropyl myristate) and a second containing IPM+5% of ethyl vaniline. The capsules were made according to the method of Example 2.
The methodology of Example 2 was applied to encapsulate different perfume oils described as phase A (non aldehyde raw materials) and phase B (aldehyde raw materials).
The phase B was added at 5% to the phase A prior to encapsulation. Different compositions of phase B have been used corresponding each time to a single aldehyde perfume molecule or to its precursor formed according to the methodology of Method 1.1, above.
According to the condition of the slurry a scale of aggregation has been defined as follows: […]
(§1) ∘ no aggregation of the capsules + aggregation of few capsules together only visible under microscopy ++ aggregates of mm size +++ important aggregation ++++ aggregation is such that a cake is obtained

[2] = Aggregation of polyurea capsules, Method 5.1; assay type: physicochemical
Procedure: An oil phase was prepared by adding Desmodur W (Isocyanate from Bayer) to a perfume oil at a level of 16.6%.
An aqueous phase (solution S1) was prepared by adding Luviskol k90 (BASF) to water, at a level of 4.5%. The pH of the solution was adjusted to 11.5 by addition of NaOH at 10%.
An aqueous phase (Solution S2) was prepared when Lupasol PR8515 (BASF) was added to water, at a level of 10%.
300 g of the oil phase was mixed with 500 g of solution S1, to form an oil-in-water emulsion, in a 1 L reactor equipped with a MIG stirrer operating at 1000 rpm.
After 30 minutes of mixing, 200 g of solution S2 was added over a period of 1 minute.
After 30 minutes, the slurry was heated up to 70° C. (1 H), then kept for 2 H at 70° C., then heated to 80° C. and kept for 1 H at 80° C., then heated to 85° C. and kept for 1 H at 85° C., then cooled to 70° C. and kept for 1 H at 70° C. before final cooling at 25° C.
The Method 5.1 of Example 5 was applied to encapsulate different perfume oils described as phase A (non aldehyde raw materials) and phase B (aldehyde raw materials).
In the following trials, phase A was IPM and phase B was aldehyde perfume molecules. Phase B was added at a level of 5% in phase A.
Phase B contains aldehyde C11 iso or the corresponding precursor prepared according to Method 1.1.
Phase B was added at a level of 5% in phase A.

[3] = Aggregation of polyurea capsules, Method 5.5; assay type: physicochemical; parameters: key: ∘: no aggregation of the capsules; +: aggregation of few capsules together only visible under microscopy; ++: aggregates of mm size; +++: important aggregation; ++++: aggregation is such that a cake is obtained; settings: polyurea Method 5.5, phase A of Table 1; for Encapsulation, No precursor (scale of aggregation): free aldehyde as phase B; for Encapsulation, With precursor (scale of aggregation): precursor (Method 1.1) as phase B
Procedure: An oil phase was prepared when Desmodur W and Desmodur N3300 (Bayer) were added in perfume oil at a level of 2.2% and 13% respectively.
An aqueous phase (Solution S1) was prepared when Gantrez AN119 (ISP) was added to water, at a level of 1.6%. The solution was heated at 70° C. for 10 min to disperse the polymer.
An aqueous phase (Solution S2) was prepared when Ethylene diamine (Merck) was added to water, at a level of 7.5%.
30 g of the oil phase was mixed with 80 g of solution S1, to form an oil-in-water emulsion, in a 250 mL vessel equipped with a propeller operating at 1000 rpm.
After 10 min of stirring, 20 g of solution S2 was added.
The slurry was stirred for 30 min at room temperature, then heated to 60° C. and stirred for 3 H at 60° C. before cooling.
The Method 5.5 of Example 5 was applied to encapsulate different perfume oils described as phase A (non aldehyde raw materials) and phase B (aldehyde raw materials).
The composition of Phase A was described in Table 1 above. Phase B is an aldehyde perfume molecule used as such or as its precursor form prepared according to Method 1.1.
According to the aspect of the slurry a scale of aggregation was defined as follow: […]
as §1
Phase B was added at a level of 20% of aldehyde in phase A.

[4] = Water solubility of the aldehyde
[5] = Aggregation of polyurea capsules, Method 5.6; assay type: physicochemical; parameters: key: ∘: no aggregation of the capsules; +: aggregation of few capsules together only visible under microscopy; ++: aggregates of mm size; +++: important aggregation; ++++: aggregation is such that a cake is obtained; settings: polyurea Method 5.6, phase A of Table 1; for Encapsulation, No precursor (scale of aggregation): free aldehyde as phase B; for Encapsulation, With precursor (scale of aggregation): precursor (Method 1.1) as phase B
Procedure: An oil phase was prepared when Desmodur VL R20 (Bayer) was added in perfume oil at a level of 2.5%.
An aqueous phase (Solution S1) was prepared when Mowiol 4-88 (Kururay) was added in water, at a level of 0.1%.
An aqueous phase (Solution S2) was prepared when diethylentriamine (Merck) was added in water, at a level of 2%.
100 g of oil phase was mixed with 250 g of solution S1, to form an oil-in-water emulsion, in a 500 mL vessel equipped with a propeller operating at 1000 rpm.
After 10 min of stirring, 50 g of solution S2 was added.
The slurry was stirred for 4 h at room temperature.
The Method 5.6 of Example 5 was applied to encapsulate different perfume oils described as phase A (non aldehyde raw materials) and phase B (aldehyde raw materials).
The composition of Phase A is described in Table 1. Phase B is an aldehyde perfume molecule used as such or as its precursor form prepared according to Method 1.1.
According to the aspect of the slurry a scale of aggregation has been defined as follow: […]
as §1

[6] = Aggregation of polyurea capsules, Method 5.4; assay type: physicochemical; settings: polyurea Method 5.4; phase B at 4% of aldehyde in phase A
Procedure: An oil phase was prepared when Desmodur W (Bayer) was added in perfume oil at a level of 16.6%.
An aqueous phase (Solution S1) was prepared when Mowiol 40-88 (Kururay) was added in water, at a level of 4.5%.
An aqueous phase (Solution S2) was prepared when Lupasol PR8515 (BASF) was added in water, at a level of 10%.
240 g of oil phase was mixed with 640 g of solution S1, to form an oil-in-water emulsion, in a 1 L reactor equipped with a mig operating at 1000 rpm.
After 30 min, the slurry is heated up to 50° C. and the solution S2 is slowly added (1 H).
The slurry is then heated up to 70° C. and kept for 2 H at 70° C., then heated to 80° C. and kept for 1 H at 80° C., then heated to 85° C. and kept for 1 H at 85° C., then cooled to 70° C. and kept for 1 H at 70° C. before final cooling at 25° C.
The Method 5.4 of Example 5 was applied to encapsulate different perfume oils described as phase A (non aldehyde raw materials) and phase B (aldehyde raw materials).
Phase B is tricyclal or the precursor of tricyclal obtained according to Method 1.1.
Phase B was added at a level of 4% of aldehyde in phase A.

[7] = Aggregation of polyurea capsules, Method 5.7; assay type: physicochemical; settings: polyurea Method 5.7; phase B at 5% in phase A of Table 1
Procedure: An oil phase was prepared when Desmodur N3300 (Bayer) was added in perfume oil at a level of 6.7%.
An aqueous phase (Solution S1) was prepared when_Mowiol 4-88 (Kururay) was added in water, at a level of 1.1%.
An aqueous phase (Solution S2) was prepared when Hydrosil 1151 (Evonik) was added in water, at a level of 75%.
134 g of oil phase was mixed with 440 g of solution 51, to form an oil-in-water emulsion, in a 1 L vessel equipped with a propeller operating at 1000 rpm.
After 10 min of stirring, 45 g of solution S2 was added.
[…] the slurry was kept at 40° C. for 2 h more before cooling.
The Method 5.7 of Example 5 was applied to encapsulate different perfume oils described as phase A (non aldehyde raw materials) and phase B (aldehyde raw materials).
The composition of Phase A is described in Table 1. Phase B is an aldehyde perfume molecule used as such or as its precursor form added at a level of 5% in Phase A.

CC1=CC(C)C(C=O)CC1 (centres unmarked) [Tricyclal]
Encapsulation, No precursor (scale of aggregation) [1]: ++++ | Encapsulation, With precursor (scale of aggregation) [1]: ∘ | Quality of the capsules examined microscopically ([2]; IPM + aldehyde): aggregated | Encapsulation (aggregation) ([2]; free aldehyde at 5% in IPM): Aggregation | Encapsulation, No precursor (scale of aggregation) [3]: ++++ | Encapsulation, With precursor (scale of aggregation) [3]: ∘ | Water solubility ([4]; Table 2): 700 ppm | Water solubility ([4]; Table 3): 700 ppm | Water solubility ([4]; Table of Example 11): 700 ppm | Water solubility ([4]; Table of Example 13): 700 ppm | Encapsulation, No precursor (scale of aggregation) [5]: +++ | Encapsulation, With precursor (scale of aggregation) [5]: ∘ | Aggregation of the capsules obtained [6]: slightly aggregated

CC(C=O)Cc1ccc(C(C)(C)C)cc1 (centres unmarked) [Lilial]
Encapsulation, No precursor (scale of aggregation) [1]: ++ | Encapsulation, With precursor (scale of aggregation) [1]: ∘ | Encapsulation, No precursor (scale of aggregation) [3]: ∘ | Encapsulation, With precursor (scale of aggregation) [3]: ∘ | Slurry aspect [7]: cake | Encapsulation, No precursor (scale of aggregation) [5]: ∘ | Encapsulation, With precursor (scale of aggregation) [5]: ∘
